For the data set, the system named is rodent lifetime carcinogenesis bioassay, tumor incidence TD50. As to the kind of experiment: chronic cancer bioassays in animals – CPDB, compiled studies (AID 1745844).

Each structure is given as a SMILES string. The source made the active and inactive calls. How the calls were made is not given here.

This passage reports TD50 and carcinogen call results from PubChem BioAssay AID1745844 (Carcinogenic Potency Database (CPDB), 2022).

As usually defined, the TD50 is the 50% point of the dose-response relation for the toxic effect studied.

As for `CC(=O)OC1CC(C)OC(C)O1` (stereo unspecified), the TD50 (mouse, strain B6C3F1, females, by gavage, site: any site (literature study), lesion: several types, types named in the paper, dosed 103 weeks, study length 104 weeks) was 3380 mg/kg/day (inactive); the TD50 (mouse, strain B6C3F1, females, by gavage, site: lung, lesion: alveolar/bronchiolar adenoma + alveolar/bronchiolar carcinoma, dosed 103 weeks, study length 104 weeks) came out at 10400 mg/kg/day; the TD50 (mouse, strain B6C3F1, males, by gavage, site: any site (literature study), lesion: several types, types named in the paper, dosed 103 weeks, study length 104 weeks) was 1820 mg/kg/day; the TD50 (mouse, strain B6C3F1, males, by gavage, site: forestomach, lesion: squamous-cell carcinoma + squamous-cell papilloma, dosed 103 weeks, study length 104 weeks) amounted to 1440 mg/kg/day; the TD50 (mouse, strain B6C3F1, males, by gavage, site: liver, lesion: hepatocellular adenoma + hepatocellular carcinoma + neoplastic nodule, dosed 103 weeks, study length 104 weeks) was 1180 mg/kg/day; the TD50 (mouse, strain B6C3F1, males, by gavage, site: lung, lesion: alveolar/bronchiolar adenoma + alveolar/bronchiolar carcinoma, dosed 103 weeks, study length 104 weeks) was 1450 mg/kg/day. The TD50 by setting is: (rat, strain Fischer 344, females, by gavage, site: liver, lesion: hepatocellular adenoma + hepatocellular carcinoma + neoplastic nodule, dosed 103 weeks, study length 104 weeks) 2430 mg/kg/day; (rat, strain Wistar, males, in drinking water, site: all sites, lesion: lymphosarcoma, dosed 87 weeks, study length 100 weeks) 29800 mg/kg/day; (rat, strain Wistar, males, in drinking water, site: all sites, lesion: myelogenous leukemia, dosed 87 weeks, study length 100 weeks) 6770 mg/kg/day; (rat, strain Wistar, males, in drinking water, site: any site (literature study), lesion: several types, types named in the paper, dosed 87 weeks, study length 100 weeks) 419 mg/kg/day; (rat, strain Wistar, males, in drinking water, site: kidney, lesion: papillary transitional-cell carcinoma, dosed 87 weeks, study length 100 weeks) 6770 mg/kg/day; (rat, strain Wistar, males, in drinking water, site: liver, lesion: hepatoma, dosed 87 weeks, study length 100 weeks) 716 mg/kg/day. For the same compound, the TD50 (rat, strain Wistar, males, in drinking water, site: skin, lesion: epidermoid carcinoma, dosed 87 weeks, study length 100 weeks) was 6770 mg/kg/day and the TD50 (rat, strain Wistar, males, in drinking water, site: subcutaneous tissue, lesion: fibrosarcoma, dosed 87 weeks, study length 100 weeks) is 6770 mg/kg/day. Moreover, the carcinogen call runs as follows: (rat, strain Fischer 344, females, by gavage, site: any site (literature study), lesion: several types, types named in the paper, dosed 103 weeks, study length 104 weeks) “negative (inactive)”; (rat, strain Fischer 344, males, by gavage, site: any site (literature study), lesion: several types, types named in the paper, dosed 103 weeks, study length 104 weeks) “negative (inactive)”.
